Measurements reported in patent US10098900B2, “Pharmaceutical compositions and their use for treatment of cancer and autoimmune diseases” (ZHEJIANG DTRM BIOPHARMA CO. LTD., priority 2015, dated 2018).
Where two headings read alike, the source gives them in different places. Marks after values point to notes of the source that are not given here.

How the values were obtained:
[1] = test system: TMD-8 cell line; test: Inhibition assay of tumor cell activity (cell viability), TMD-8; format: cell-based, human; conditions: individual compound; for inhibition at 0.01 µM / inhibition at 0.1 µM / inhibition at 1 µM / inhibition at 10 µM / inhibition at 100 µM: Homo sapiens, TMD8, 48 h, read-out: Inh % on TMD-8 cell line (AVG); for Inh % on TMD-8 cell line (AVG): 48 h
Method: (§1) Inhibition Assay of Tumor Cell Activity:
(§2) Tumor cells (TMD-8, DoHH2 and WSU-DLCL2) were transferred and attached to 96-well plates. After one night, blank buffer and selected concentrations (0.01 nM-100 μM) of the test compound solution were added. After 48 hours incubation, CellTiter-Go was added to lyse the cells. Recording luminescent signal and calculate the percent inhibition of cell viability

[2] = test system: adjuvant-induced arthritis; test: Adjuvant-induced arthritis (AA/AIA) model in female Lewis rats (paw volume, clinical score, histopathology); format: in vivo, rat; set-up: Pathological score (Mean ± SEM), Inflammatory cell infiltration / Pathological score (Mean ± SEM), Pannus growth / Pathological score (Mean ± SEM), Cartilage injury / Pathological score (Mean ± SEM), Bone resorption / Pathological score (Mean ± SEM), Total: scale not given here; conditions: for Paw volume (mL), Mean: 3 mg/kg BID (positive control)
Excerpt: Adjuvant-Induced Arthritis AA Model: […] All rats except the normal group were immunized with complete Freund's adjuvant (CFA) subcutaneously at the left hind paw to induce arthritis at day 0. […] The treatments were given orally for 3 consecutive weeks. The body weight, paw volume and clinical score were monitored every other day after day 13 throughout the course of the study. At the terminal point, right hind paws were collected for histopathology analysis with H.E. staining.

[3] = test system: TMD-8 lymphoma xenograft; test: Inhibition of tumor growth in vivo, TMD-8 lymphoma xenograft SCID mouse model; conditions: for Antitumor effect (%): TMD-8, Oral, BID
Method: Inhibition Study of Tumor Growth In Vivo:
SCID mice or nude mice (weighing about 18 g at the beginning of the experiment) were randomly divided into groups by the software in order to achieve close average weights between groups and control the bias within the allowable range. The mice were injected BTK cell lines (TMD-8, WSU-DLCL2 and DoHH-2) for tumor formation. Inhibitors were administered orally once or twice a day, a total of 14 days, 21 days or 28 days. Body weights and tumor volume were recorded.
Xenograft Tumor Models Inoculated with TMD-8, or DoHH2, or WSU-DLCL2 Tumor Cell Lines:
TMD-8 is a sensitive human diffuse large B-cell lymphoma cell line, and DoHH2 is a more difficult to treat human follicular lymphoma cell line, while WSU-DLCL2 is a multi-drug resistant (MDR) human non-Hodgkin's lymphoma cell line. Drug combination therapies provide better efficacies in all three tumor models than single targeted agent alone.
The TMD-8, DoHH2, WSU-DLCL2 tumor cells were maintained in vitro as a suspension culture in RPMI-1640 medium supplemented with 10% heat inactivated fetal calf serum at 37° C. in an atmosphere of 5% CO2 in air. The tumor cells were routinely subcultured twice weekly. The cells growing in an exponential growth phase were harvested and counted for tumor inoculation. Each mouse was inoculated subcutaneously at the right flank with the tumor cells (10×10^6) in 0.2 ml of PBS with Matrigel (1:1) for tumor development. The treatments were started after the average tumor size reached approximately 100-200 mm^3. Each group consisted of 6-10 tumor-bearing mice. The testing article (vehicle, compound or combination) was orally administrated to the mice according to the predetermined doses for 14-days or 21-days. Animal body weight and tumor volume were measured every 2- or 3-days throughout the treatment.

[4] = test system: collagen induced arthritis; test: Collagen-induced arthritis (CIA) model in male DBA/1 mice (clinical score, histopathology); format: in vivo, mouse; set-up: Clinical Score (Mean) / Pathological score (Mean ± SEM), Inflammatory cell infiltration / Pathological score (Mean ± SEM), Pannus growth / Pathological score (Mean ± SEM), Cartilage injury / Pathological score (Mean ± SEM), Bone resorption / Pathological score (Mean ± SEM), Total: scale not given here; conditions: CIA study; for Clinical Score (Mean): Dexamethasone 0.2 mg/kg
Method: Collagen-Induced Arthritis (CIA) Model: The combination of Compounds 3 and 12 was evaluated in collagen induced arthritis (CIA) mouse model in Male DBA/1 mice. The animals were divided into 8 groups, including a normal, a vehicle, […] treatment groups: […] On the same day, immunized mice were randomly divided into 7 groups: […] The treatments were given orally for 2 consecutive weeks. Body weight and clinical score were monitored through the study (recorded three times a week started after second immunization). At the end of the study, animals were euthanized and both hind paws were collected for histopathology analysis.

[5] = test system: DoHH-2 cell line; test: Inhibition assay of tumor cell activity (cell viability), DoHH-2; format: cell-based; conditions: Homo sapiens, individual compound, read-out: Inh % on DoHH-2 cell line (AVG)
Method: as §1, §2

[6] = test system: resistant WSU-DLCL2 cell line; test: Inhibition assay of tumor cell activity (cell viability), WSU-DLCL2; format: cell-based; conditions: Homo sapiens, WSUDLCL2, individual compound, read-out: Inh % on resistant WSU-DLCL2 cell line (AVG)
Method: as §1, §2

[7] = test system: WSU-DLCL2 xenograft; conditions: gavage to mice, 480 mg/kg/day, Knutson et al., cited from earlier work
[8] = Left hind paw, Dexamethasone 0.2 mg/kg QD
[9] = Right hind paw, Dexamethasone 0.2 mg/kg QD

N#CC[C@H](C1CCCC1)n1cc(-c2ncnc3[nH]ccc23)cn1 [Compound 10, Ruxolitinib]
inhibition at 0.01 µM ([1]; 0.01 uM (10 nM)): 0.05%
inhibition at 0.1 µM ([1]; 0.1 uM (100 nM)): -5.53%
inhibition at 1 µM ([1]; 1 uM (1,000 nM)): 101%

C[C@@H]1CCN(C(=O)CC#N)C[C@@H]1N(C)c1ncnc2[nH]ccc12 [Compound 11, Tofactinib]
Paw volume (mL), Mean ([2]; Day 0): 1.00 mL
Paw volume (mL), Mean ([2]; Day 17): 1.54*** mL
Paw volume (mL), Mean ([2]; Day 26): 1.37*** mL
Paw volume (mL), Mean ([2]; Day 28): 1.33*** mL
Paw volume (mL), Mean ([2]; Day 31): 1.23*** mL
Paw volume (mL), Mean ([2]; Day 33): 1.23*** mL
Pathological score (Mean ± SEM), Bone resorption ([2]; AA study, 11, 3 mg/kg): 0.5 ± 0.22
Pathological score (Mean ± SEM), Cartilage injury ([2]; AA study, 11, 3 mg/kg): 0.2 ± 0.20
Pathological score (Mean ± SEM), Inflammatory cell infiltration ([2]; AA study, 11, 3 mg/kg): 1.9 ± 0.18
Pathological score (Mean ± SEM), Pannus growth ([2]; AA study, 11, 3 mg/kg): 0.4 ± 0.22
Pathological score (Mean ± SEM), Total ([2]; AA study, 11, 3 mg/kg): 3.0 ± 0.73
Inh % on TMD-8 cell line (AVG) ([1]; 0.01 uM (10 nM)): 6.02%
Inh % on TMD-8 cell line (AVG) ([1]; 0.1 uM (100 nM)): 1.31%
Inh % on TMD-8 cell line (AVG) ([1]; 1 uM (1,000 nM)): 6.66%

[2H]/C=C\C(=O)N1CC[C@@H](n2nc(-c3ccc(Oc4c(F)c(F)cc(F)c4F)cc3F)c3c(N)ncnc32)C1 [Compound 7]
inhibition at 0.01 µM ([1]; 0.01 uM (10 nM)): 33.9%
inhibition at 0.1 µM ([1]; 0.1 uM (100 nM)): 58.7%
inhibition at 1 µM ([1]; 1 uM (1,000 nM)): 58.6%
inhibition at 10 µM [1]: 62.9%
inhibition at 100 µM [1]: 99.3%

CC[C@H](Nc1ncnc2[nH]cnc12)c1nc2cccc(F)c2c(=O)n1-c1ccccc1 [Compound 8, Idelalisib]
inhibition at 0.01 µM ([1]; 0.01 uM (10 nM)): 29.4%
inhibition at 0.1 µM ([1]; 0.1 uM (100 nM)): 48.8%
inhibition at 1 µM ([1]; 1 uM (1,000 nM)): 68.9%
inhibition at 10 µM [1]: 87.7%
inhibition at 100 µM [1]: 96.8%
Antitumor effect (%) ([3]; FIG. 3, 21 days, 10 mg/kg): 26%
Antitumor effect (%) ([3]; FIG. 12, 14 days, 10 mg/kg): 48%

C[C@@H]1C[C@H]2[C@@H]3CCC4=CC(=O)C=C[C@]4(C)[C@@]3(F)[C@@H](O)C[C@]2(C)[C@@]1(O)C(=O)CO [Dexamethasone]
Pathological score (Mean ± SEM), Total ([4]; Dexamethasone 0.2 mg/kg QD): 0.00 ± 0.00
Pathological score (Mean ± SEM), Bone resorption [4, 8]: 0.00 ± 0.00
Pathological score (Mean ± SEM), Cartilage injury [4, 8]: 0.00 ± 0.00
Pathological score (Mean ± SEM), Inflammatory cell infiltration [4, 8]: 0.00 ± 0.00
Pathological score (Mean ± SEM), Pannus growth [4, 8]: 0.00 ± 0.00
Pathological score (Mean ± SEM), Bone resorption [4, 9]: 0.00 ± 0.00
Pathological score (Mean ± SEM), Cartilage injury [4, 9]: 0.00 ± 0.00
Pathological score (Mean ± SEM), Inflammatory cell infiltration [4, 9]: 0.00 ± 0.00
Pathological score (Mean ± SEM), Pannus growth [4, 9]: 0.00 ± 0.00
Clinical Score (Mean) ([4]; day 21): 0.00
Clinical Score (Mean) ([4]; day 32): 0.60***
Clinical Score (Mean) ([4]; day 39): 0.40***
Clinical Score (Mean) ([4]; day 42): 0.20***

CO[C@H]1C[C@@H]2CC[C@@H](C)[C@@](O)(O2)C(=O)C(=O)N2CCCC[C@H]2C(=O)O[C@H]([C@H](C)C[C@@H]2CC[C@@H](OCCO)[C@H](OC)C2)CC(=O)[C@H](C)/C=C(\C)[C@@H](O)[C@@H](OC)C(=O)[C@H](C)C[C@H](C)/C=C/C=C/C=C/1C [Compound 14, Everolimus]
tumor disappearance ([3]; TMD-8 mice model, text): tumor disappearance

Nc1cccc2c1C(=O)N(C1CCC(=O)NC1=O)C2=O (stereo not shown) [Compound 15, Pomalidomide]
inhibition at 0.01 µM ([5]; 0.01 uM): -7.95%
inhibition at 0.1 µM ([5]; 0.1 uM): 6.75%
inhibition at 1 µM ([5]; 1 uM): 51.3%
inhibition at 0.01 µM ([6]; 0.01 uM): -14.5%
inhibition at 0.1 µM ([6]; 0.1 uM): -8.32%
inhibition at 1 µM ([6]; 1 uM): 46.6%
inhibition at 0.01 µM ([1]; 0.01 uM (10 nM)): 45.1%
inhibition at 0.1 µM ([1]; 0.1 uM (100 nM)): 61.7%
inhibition at 1 µM ([1]; 1 uM (1,000 nM)): 76.8%
Antitumor effect (%) ([3]; FIG. 2, 14 days, 30 mg/kg): 24%
Antitumor effect (%) ([3]; FIG. 3, 21 days, 10 mg/kg): −8%

CCN(c1cc(-c2ccc(CN3CCOCC3)cc2)cc(C(=O)NCc2c(C)cc(C)[nH]c2=O)c1C)C1CCOCC1 [EPZ-6438]
effect against the WSU-DLCL tumor [7]: achieved a similar effect
effect against the WSU-DLCL tumor ([7]; listed as EZ-6438): inhibited tumor growth

CC1(C)CCC(CN2CCN(c3ccc(C(=O)NS(=O)(=O)c4ccc(NCC5CCOCC5)c([N+](=O)[O-])c4)c(Oc4cnc5[nH]ccc5c4)c3)CC2)=C(c2ccc(Cl)cc2)C1 [Compound 12, Venetoclax]
inhibition at 0.01 µM ([1]; 0.01 uM (10 nM)): 11.1%
inhibition at 0.1 µM ([1]; 0.1 uM (100 nM)): 18.8%
inhibition at 1 µM ([1]; 1 uM (1,000 nM)): 37.6%
Inh % on TMD-8 cell line (AVG) ([1]; 0.01 uM (10 nM)): 11.12%
Inh % on TMD-8 cell line (AVG) ([1]; 0.1 uM (100 nM)): 18.81%
Inh % on TMD-8 cell line (AVG) ([1]; 1 uM (1,000 nM)): 37.55%
Antitumor effect (%) ([3]; FIG. 12, 14 days, 5 mg/kg): 12%

Nc1cccc2c1CN(C1CCC(=O)NC1=O)C2=O (stereo not shown) [Compound 16, Lenalidomide]
inhibition at 0.01 µM ([1]; 0.01 uM (10 nM)): 7.43%
inhibition at 0.1 µM ([1]; 0.1 uM (100 nM)): 21%
inhibition at 1 µM ([1]; 1 uM (1,000 nM)): 94.2%
Antitumor effect (%) ([3]; FIG. 4, 21 days, 10 mg/kg): 16%
Antitumor effect (%) ([3]; FIG. 4, 21 days, 30 mg/kg): 42%

CO[C@H]1C[C@@H]2CC[C@@H](C)[C@@](O)(O2)C(=O)C(=O)N2CCCC[C@H]2C(=O)O[C@H]([C@H](C)C[C@@H]2CC[C@@H](O)[C@H](OC)C2)CC(=O)[C@H](C)/C=C(\C)[C@@H](O)[C@@H](OC)C(=O)[C@H](C)C[C@H](C)/C=C/C=C/C=C/1C [Compound 17, Rapamycin]
inhibition at 0.01 µM ([1]; 0.01 uM (10 nM)): 58.7%
inhibition at 0.1 µM ([1]; 0.1 uM (100 nM)): 59.8%
inhibition at 1 µM ([1]; 1 uM (1,000 nM)): 65%

Cc1cc(O)c(-c2ccc([C@@H](C)CN(C)C)cc2)c2c1[nH]c(=O)c1sccc12 [Compound 13, (R)-9-(4-(1-(dimethylamino)propan-2-yl)phenyl)-8-hydroxy-6-methylthieno[2,3-c]quinolin-4(5H)-one]
inhibition at 0.01 µM ([1]; 0.01 uM (10 nM)): 8.71%
inhibition at 0.1 µM ([1]; 0.1 uM (100 nM)): 49.1%
inhibition at 1 µM ([1]; 1 uM (1,000 nM)): 101%

C=CC(=O)N1CCC[C@@H](n2nc(-c3ccc(Oc4ccccc4)cc3)c3c(N)ncnc32)C1 [Compound 9, Ibrutinib]
inhibition at 0.01 µM ([1]; 0.01 uM (10 nM)): 56.2%
inhibition at 0.1 µM ([1]; 0.1 uM (100 nM)): 59.1%
inhibition at 1 µM ([1]; 1 uM (1,000 nM)): 66.1%
inhibition at 10 µM [1]: 81.4%
inhibition at 100 µM [1]: 99.9%

CN(Cc1cnc2nc(N)nc(N)c2n1)c1ccc(C(=O)N[C@@H](CCC(=O)O)C(=O)O)cc1 [Compound 18, Methotrexate]
Inh % on TMD-8 cell line (AVG) ([1]; 0.01 uM (10 nM)): −8.45%
Inh % on TMD-8 cell line (AVG) ([1]; 0.1 uM (100 nM)): 32.04%
Inh % on TMD-8 cell line (AVG) ([1]; 1 uM (1,000 nM)): 39.55%
